Entries after “also recorded” stand apart in the source; their conditions may differ.
test system: Herbaspirillum frisingense (Hf-GFP); test: Hf-GFP facilitation screen on kChip (Hf-GFP yield in co-culture with soil isolate compositions, single carbon sources); format: cell-based; conditions: single carbon source 0.5% w/v, by 72 hours
Experimental: Microbial cultures were prepared as described in the “Microbial culture input preparation” section above. The culture medium for H. frisingense revival from a glycerol stock also included the selection antibiotic kanamycin (30 μg/mL). Six carbon sources (galactose, glucose, fructose, raffinose, lactose, sucrose) were prepared as described in the “Carbon source input preparation” section above to a concentration of 2% w/v, which were added 1:1 with MM+0.05% w/v BSA to produce 1×MM+1% w/v carbon source (six unique MM each with one carbon source). A plate of 16 color codes were also prepared in advance at 50 μM total concentration (“kChip input preprocessing” section above).
At the onset of the screen, all cultures were washed three times and resuspended in MM+0.05% w/v BSA (no carbon source) and normalized to an initial OD600=0.08. A “droplet plate” (96-well plate) was prepared whereby each of 16 wells, corresponding to the 16 input conditions of the screen, received the following four elements: (1) 50 μL MM+1% w/v carbon source; (2) 25 μL unique soil isolate at OD600=0.08 (or a no-isolate control or a negative control); (3) 25 μL Hf-GFP at OD600=0.08; and (4) 2 μL 50 μM color code. The two controls, a negative control and a no-isolate control, were in principle the same (just different color codes), with the negative control used to measure Hf-GFP monocultures and the no-isolate used to calculate isolate-mediated differences. The carbon source and color code were mixed in advance, though the cultures were added just before making droplets to load on a kChip.
After emulsification, each 1-nL droplet contained the following: (1) 0.5% w/v carbon source; (2) soil isolate at OD600=0.02 (˜20 cells) (or no-isolate control or negative control); (3) Hf-GFP at OD600=0.02 (˜20 cells); and (4) a set of color code (total concentration of all three fluorescent dyes at 1 μM). Droplets were prepared for each carbon source at a time and loaded onto a k={1:7;19} Chip, i.e. first all sucrose-containing droplets were prepared and loaded onto the first kChip in the screen, then all lactose-containing droplets were prepared and loaded onto the second kChip, and so forth. Because there were only 16 inputs in total, there were no instances where all inputs were unique in k=19 microwells. The instant analysis was focused upon the k=1-7 microwells, and specifically on instances where all droplets within a given microwell were unique. Throughput tradeoffs associated with this number of inputs and k values are discussed below.
After loading droplets, the kChip was imaged to read the color-code of each droplet (“pre-merge” scan) and droplet sets were merged within their corresponding microwells (“Droplet making and kChip loading” section above). The post-merge communities contained the following: (1) 0.5% w/v carbon source; (2) k=1, 2, 3, 4, 5, 6, 7, or 19 soil isolates collectively at OD600=0.02 (or no-isolate control or negative control); (3) Hf-GFP at OD600=0.02; and (4) 1 μM mixed color codes (no longer serving a purpose). […]

Question: `O=C(CO)[C@@H](O)[C@H](O)[C@H](O)CO` [fructose] was tested. Which “Hf-GFP monoculture growth/yield on the carbon source” value (“Hf-GFP monoculture growth/yield” below) did it give?
Answer: low

Question: How did the “Hf-GFP monoculture growth/yield” value turn out when `O=C[C@H](O)[C@@H](O)[C@@H](O)[C@H](O)CO` [galactose] was run?
Answer: high yield

Question: With `OC[C@H]1O[C@@H](O[C@H]2[C@H](O)[C@@H](O)C(O)O[C@@H]2CO)[C@H](O)[C@@H](O)[C@H]1O` (stereo partly drawn) [lactose] as the molecule, how does the “Hf-GFP monoculture growth/yield” value read?
Answer: low

Question: How did the “Hf-GFP monoculture growth/yield” value turn out when `OC[C@H]1O[C@H](OC[C@H]2O[C@H](O[C@]3(CO)O[C@H](CO)[C@@H](O)[C@@H]3O)[C@H](O)[C@@H](O)[C@@H]2O)[C@H](O)[C@@H](O)[C@H]1O` [raffinose] was run?
Answer: low

Question: Which “Hf-GFP monoculture growth/yield” value does the source give for `OC[C@H]1O[C@@](CO)(O[C@H]2O[C@H](CO)[C@@H](O)[C@H](O)[C@H]2O)[C@@H](O)[C@@H]1O` [sucrose] here?
Answer: indistinguishable from background; also recorded: undetectably low

test system: panel of seven fluorescent strains; test: not given; conditions: cultures unable to grow on a given carbon source, BSA added

Question: How did the “serving as an alternative carbon source (false positive growth)” value turn out when bovine serum albumin [BSA] was run?
Answer: caused no false positives
